Measurements from patent US4610686A, “Controlled delivery of haloperidol by an osmotic delivery system” (ALZA Corporation, priority 1983, dated 1986).
≈ marks a conversion by molar mass, not a printed value.

Assays:
[1] = haloperidol alone
[2] = haloperidol, background statement; cited from earlier work

In the case of `O=C(CCCN1CCC(O)(c2ccc(Cl)cc2)CC1)c1ccc(F)cc1` [haloperidol, 4-[4-(-chlorophenyl)-4-hydroxy-1-piperidnyl]-1-(4-fluorophenyl)-1-butanone], the “osmotic pressure (in words)” value [1] is listed as “near zero osmotic pressure”, the “solubility in water (in words, background)” value [2] is listed as “practically insoluble in water” and the solubility (physchem; aqueous citric acid) is listed as 165 mg/mL (≈ 439 mM). For the same compound, the solubility (physchem; aqueous maleic acid) was > 200 mg/mL, the solubility (physchem; aqueous malic acid) was > 250 mg/mL and the solubility (physchem; water) was < 0.1 mg/mL.
